US9713615B2, “Tetrahydroisoquinolin-2-yl-(quinazolin-4-yl)methanone compounds” (Rexahn Pharmaceuticals, Inc., priority 2013, dated 2017)
Like-named read-outs stand apart in the source and are kept apart here.

Key:
Type in all cases: cell-based, Human
[1] = system: MDA-MB-231 (breast); test: SRB growth inhibition assay, MDA-MB-231; conditions: read-out: Inhibition of cell growth (IC50, μM) MDA-MB-231
Text: (§1) Cancer cells used in this study to determine the effect of tetrahydroisoquinolin-2-yl-(quinazolin-4-yl)methanone compounds were obtained from the following sources: Human OVCAR-3 (ovary), SK-MEL-28 (melanoma), MDA-MB-231 (breast), HeLa (cervix), PC3 (prostate), HepG2 (liver), A549 (lung), Caki-1 (kidney), HCT116 (colon) and PANC-1 (pancreas) from the American Type Culture Collection (ATCC) (Manassas, Va.); U251 (brain) from Riken (Japan); MKN-45 (stomach) from DSMZ (Germany). All cell lines except MDA-MB-231, HCT116, Caki-1 and PANC-1 were grown in RPMI1640 medium (Invitrogen, Carlsbad, Calif.) supplemented with 10% fetal bovine serum (“FBS”), 1 mM sodium pyruvate, 10 mM HEPES and 100 U/ml penicillin and 100 μg/ml streptomycin (“P/S”). MDA-MB-231, HCT116, Caki-1 and PANC-1 cells were maintained in Dulbecco's modified Eagle's medium (“DMEM”, Invitrogen) supplemented with 10% FBS, P/S, 10 mM HEPES and 2 mM L-glutamine. All cells were incubated at 37° C. under humidified 5% CO2.
(§2) The growth inhibition of the tetrahydroisoquinolin-2-yl-(quinazolin-4-yl)methanone compounds against a variety of human tumor cells was evaluated to study the relative importance of particular substituent groups on the compounds. The tetrahydroisoquinolin-2-yl-(quinazolin-4-yl)methanone compounds, prepared as described above, were tested with DMSO as a control.
(§3) The growth inhibition assay of representative tetrahydroisoquinolin-2-yl-(quinazolin-4-yl)methanone derivatives against human tumor cell lines was performed using the Sulforhodamine B (“SRB”) method (Skehan et al., J. National Cancer Institute, 82: 1107-1112 (1990)). Briefly, exponentially growing tumor cells were seeded into a 96-well plate at a density of 2-3×10^3 cells/well and treated with tetrahydroisoquinolin-2-yl-(quinazolin-4-yl)methanone compounds the next day. Triplicate wells were used for each treatment. The cells were incubated with the various compounds for 96 hours at 37° C. in a humidified 5% CO2 atmosphere. After 96-hour incubation, cells were fixed with 10% trichloroacetic acid (“TCA”), incubated for 1 hour at 4° C., and washed 3 times with tap water. Subsequently, cells were stained with 0.4% sulforhodamine B in 1% acetic acid for 30 minutes, washed 4 times with 1% acetic acid, and air-dried again After 5 minutes agitation in 10 mM Tris solution, the absorbance of each well was measured at 530 nm using Benchmark Plus Microplate reader (Bio-Rad Laboratories, Hercules, Calif.).
(§4) To translate the OD530 values into the number of live cells in each well, the OD530 values were compared to those on standard OD530-versus-cell number curves generated for each cell line. The percent survival was calculated using the formula: % Survival=live cell number [test]/live cell number [control]×100
(§5) The IC50 values were calculated by non-linear regression analysis.
(§6) The compounds were screened against at […] including PANC-1, MDA-MB-231, HCT116 and Caki-1, at approximately 1 μM concentration. The inhibition of cell growth (IC50, μM) of some tetrahydroisoquinolin-2-yl-(quinazolin-4-yl)methanone compounds are shown in Table 2.

[2] = system: HCT116 (colon); test: SRB growth inhibition assay, HCT116; conditions: read-out: Inhibition of cell growth (IC50, μM) HCT116
Text: as §1, §2, §3, §4, §5, §6

[3] = system: Caki-1 (kidney); test: SRB growth inhibition assay, Caki-1; conditions: read-out: Inhibition of cell growth (IC50, μM) Caki-1
Text: as §1, §2, §3, §4, §5, §6

[4] = system: PANC-1 (pancreas); test: SRB growth inhibition assay, PANC-1; conditions: read-out: Inhibition of cell growth (IC50, μM) Panc-1
Text: as §1, §2, §3, §4, §5, §6

[5] = Homo sapiens, MDA-MB-231, 96 hours incubation
[6] = Homo sapiens, HCT-116, 96 hours incubation
[7] = Homo sapiens, CAKI-1, 96 hours incubation
[8] = Homo sapiens, PANC-1, 96 hours incubation

| IC50 ([1]; 96 hours incubation) | IC50 ([2]; 96 hours incubation) | IC50 ([4]; 96 hours incubation) | IC50 [1, 5] | IC50 [2, 6] | IC50 [4, 8] | Compound | IC50 ([3]; 96 hours incubation) | IC50 [3, 7] |
| --- | --- | --- | --- | --- | --- | --- | --- | --- |
| 0.58 µM | 0.54 µM | 0.51 µM |  |  |  | 2-[[2-(3-fluorophenyl)phenyl)quinazolin-4-yl]carbonyl]-5-hydroxy-6-methyl-1,2,3,4-tetrahydroisoquinoline [Compound 46] | 0.52 µM |  |
|  |  |  | 1.2 µM | 1.39 µM | 1.45 µM | COc1ccc2c(c1OC)CCN(C(=O)c1nc(-c3ccc(F)cc3)nc3ccccc13)C2 [Compound 3, 2-[[2-(4-fluorophenyl)quinazolin-4-yl]carbonyl]-5,6-dimethoxy-1,2,3,4-tetrahydroisoquinoline] |  | 1.1 µM |
|  |  |  | 0.38 µM | 0.47 µM | 0.4 µM | Cc1ccc2c(c1O)CCN(C(=O)c1nc(-c3ccc(F)cc3)nc3ccccc13)C2 [Compound 5, 2-[[2-(4-fluorophenyl)quinazolin-4-yl]carbonyl]-5-hydroxy-6-methyl-1,2,3,4-tetrahydroisoquinoline] |  | 0.36 µM |
|  |  |  | 0.23 µM | 0.29 µM | 0.18 µM | COc1ccc2c(c1O)CCN(C(=O)c1nc(-c3ccc(C)cc3)nc3ccccc13)C2 [Compound 12, 2-[[2-(4-methylphenyl)quinazolin-4-yl]carbonyl]-5-hydroxy-6-methoxy-1,2,3,4-tetrahydroisoquinoline] |  | 0.2 µM |
|  |  |  | 1.5 µM | 2.05 µM | 1.72 µM | Cc1ccc(-c2nc(C(=O)N3CCc4c(ccc(C)c4O)C3)c3ccccc3n2)cc1 [Compound 16, 2-[[2-(4-methylphenyl)quinazolin-4-yl]carbonyl]-5-hydroxy-6-methyl-1,2,3,4-tetrahydroisoquinoline] |  | 1.61 µM |
|  |  |  | 0.84 µM | 1.08 µM | 1.06 µM | COc1ccc2c(c1OC)CCN(C(=O)c1nc(-c3ccccc3)nc3ccccc13)C2 [Compound 19, 2-[[2-phenylquinazolin-4-yl]carbonyl]-5,6-dimethoxy-1,2,3,4-tetrahydroisoquinoline] |  | 0.85 µM |
|  |  |  | 0.27 µM | 0.34 µM | 0.22 µM | Cc1ccc2c(c1O)CCN(C(=O)c1nc(-c3ccccc3)nc3ccccc13)C2 [Compound 21, 2-[[2-phenylquinazolin-4-yl]carbonyl]-5-hydroxy-6-methyl-1,2,3,4-tetrahydroisoquinoline] |  | 0.23 µM |
|  |  |  | 0.41 µM | 0.49 µM | 0.46 µM | COc1ccc(-c2nc(C(=O)N3CCc4c(ccc(OC)c4OC)C3)c3ccccc3n2)cc1 [Compound 24, 2-[[2-(4-methoxylphenyl)quinazolin-4-yl]carbonyl]-5,6-dimethoxy-1,2,3,4-tetrahydroisoquinoline] |  | 0.38 µM |
|  |  |  | 2.53 µM |  | 1.77 µM | COc1ccc(-c2nc(C(=O)N3CCc4c(ccc(N(C)C)c4O)C3)c3ccccc3n2)cc1 [Compound 25, 2-[[2-(4-methoxylphenyl)quinazolin-4-yl]carbonyl]-5-hydroxy-6-dimethylamino-1,2,3,4-tetrahydroisoquinoline] |  |  |
|  |  |  | 0.19 µM | 0.22 µM | 0.18 µM | COc1ccc(-c2nc(C(=O)N3CCc4c(ccc(C)c4O)C3)c3ccccc3n2)cc1 [Compound 26, 2-[[2-(4-methoxylphenyl)quinazolin-4-yl]carbonyl]-5-hydroxy-6-methyl-1,2,3,4-tetrahydroisoquinoline] |  | 0.16 µM |
|  |  |  | 0.54 µM | 0.5 µM | 0.42 µM | COc1ccc2c(c1O)CCN(C(=O)c1nc(-c3ccc(Cl)cc3)nc3ccccc13)C2 [Compound 27, 2-[[2-(4-chlorophenyl)quinazolin-4-yl]carbonyl]-5-hydroxy-6-methoxy-1,2,3,4-tetrahydroisoquinoline] |  | 0.46 µM |
|  |  |  | 0.63 µM | 0.91 µM | 0.85 µM | Cc1ccc2c(c1O)CCN(C(=O)c1nc(-c3ccc(Cl)cc3)nc3ccccc13)C2 [Compound 31, 2-[[2-(4-chlorophenyl)quinazolin-4-yl]carbonyl]-5-hydroxy-6-methyl-1,2,3,4-tetrahydroisoquinoline] |  | 0.64 µM |
|  |  |  | 0.43 µM | 0.52 µM | 0.47 µM | COc1ccc2c(c1O)CCN(C(=O)c1nc(-c3ccc(N(C)C)cc3)nc3ccccc13)C2 [Compound 32, 2-[[2-(4-(dimethylamino)phenyl)quinazolin-4-yl]carbonyl]-5-hydroxy-6-methoxy-1,2,3,4-tetrahydroisoquinoline] |  | 0.37 µM |
|  |  |  | 0.42 µM | 0.55 µM | 0.43 µM | COc1ccc2c(c1O)CCN(C(=O)c1nc(-c3ccc(C(F)(F)F)cc3)nc3ccccc13)C2 [Compound 37, 2-[[2-(4-(trifluoromethyl)phenyl)quinazolin-4-yl]carbonyl]-5-hydroxy-6-methoxy-1,2,3,4-tetrahydroisoquinoline] |  | 0.36 µM |
|  |  |  | 0.49 µM | 0.81 µM | 0.5 µM | COc1cccc(-c2nc(C(=O)N3CCc4c(ccc(OC)c4O)C3)c3ccccc3n2)c1 [Compound 47, 2-[[2-(3-methoxylphenyl)quinazolin-4-yl]carbonyl]-5-hydroxy-6-methoxy-1,2,3,4-tetrahydroisoquinoline] |  | 0.59 µM |
|  |  |  | 1.62 µM | 2.67 µM | 2.51 µM | COc1ccc2c(c1O)CCN(C(=O)c1nc(-c3cccc(C(F)(F)F)c3)nc3ccccc13)C2 [Compound 52, 2-[[2-(3-(trifluoromethyl)phenyl)quinazolin-4-yl]carbonyl]-5-hydroxy-6-methoxy-1,2,3,4-tetrahydroisoquinoline] |  | 1.91 µM |
|  |  |  | 3.44 µM | 1.65 µM |  | COc1ccc2c(c1OC)CCN(C(=O)c1nc(-c3cccc(C(F)(F)F)c3)nc3ccccc13)C2 [Compound 54, 2-[[2-(3-(trifluoromethyl)phenyl)quinazolin-4-yl]carbonyl]-5,6-dimethoxy-1,2,3,4-tetrahydroisoquinoline] |  |  |
|  |  |  | 1.84 µM | 2.76 µM | 2.31 µM | Cc1ccc2c(c1O)CCN(C(=O)c1nc(-c3ccc(F)cc3F)nc3ccccc13)C2 [Compound 61, 2-[[2-(2,4-difluorophenyl)quinazolin-4-yl]carbonyl]-5-hydroxy-6-methyl-1,2,3,4-tetrahydroisoquinoline] |  | 2.47 µM |
|  |  |  | 0.2 µM | 0.34 µM | 0.21 µM | COc1ccc2c(c1O)CCN(C(=O)c1nc(-c3ccc(NC(C)=O)cc3)nc3ccccc13)C2 [Compound 62, 2-[[2-(4-acetamidophenyl)quinazolin-4-yl]carbonyl]-5-hydroxy-6-methoxy-1,2,3,4-tetrahydroisoquinoline] |  | 0.2 µM |
|  |  |  | 0.11 µM | 0.16 µM | 0.2 µM | COc1ccc2c(c1O)CCN(C(=O)c1nc(-c3ccc([N+](=O)[O-])cc3)nc3ccccc13)C2 [Compound 95, 2-[[2-(4-nitrophenyl)quinazolin-4-yl]carbonyl]-5-hydroxy-6-methoxy-1,2,3,4-tetrahydroisoquinoline] |  |  |
|  |  |  | 0.23 µM | 0.36 µM | 0.28 µM | COc1ccc2c(c1O)CCN(C(=O)c1nc(-c3ccc(N)cc3)nc3ccccc13)C2 [Compound 96, 2-[[2-(4-aminophenyl)quinazolin-4-yl]carbonyl]-5-hydroxy-6-methoxy-1,2,3,4-tetrahydroisoquinoline] |  |  |
